# Source: patent EP2058315A1, “1H-Furo[3,2-C]Pyrazoles active as aurora kinase inhibitors” (Nerviano Medical Sciences S.r.l., priority 2007, dated 2009)
# Biological target: T1, Aurora-2 (Homo sapiens, UniProt O14965)
# T1 sequence (O14965 1-403): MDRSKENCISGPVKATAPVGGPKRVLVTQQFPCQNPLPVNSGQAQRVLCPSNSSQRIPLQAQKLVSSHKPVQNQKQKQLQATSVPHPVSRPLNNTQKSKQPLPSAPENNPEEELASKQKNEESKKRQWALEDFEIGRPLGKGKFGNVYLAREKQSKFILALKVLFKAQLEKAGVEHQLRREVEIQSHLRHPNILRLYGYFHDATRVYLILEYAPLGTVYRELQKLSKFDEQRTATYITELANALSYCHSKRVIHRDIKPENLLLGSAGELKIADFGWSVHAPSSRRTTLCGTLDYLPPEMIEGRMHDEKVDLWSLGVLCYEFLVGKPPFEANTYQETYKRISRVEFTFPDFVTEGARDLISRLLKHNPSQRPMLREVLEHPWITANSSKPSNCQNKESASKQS
# Test: Inhibition assay of Aurora-2 activity (SPA technology)
# Type: biochemical
# Settings: screened according to the methods of the pharmacology section; read-out: IC50values for Aur2 inhibition
# Protocol: The inhibiting activity and the potency of selected compounds is determined through a method of assay based on the use of the SPA technology (Amersham Pharmacia Biotech).
# The assay consists of the transfer of radioactivity labelled phosphate moiety by the kinase to a biotinylated substrate. The resulting 33P-labelled biotinylated product is allowed to bind to streptavidin-coated SPA beads (biotin capacity 130 pmol/mg), and light emitted was measured in a scintillation counter.
# Kinase reaction: 8 µM biotinylated peptide (4 repeats of LRRWSLG, commercially available from Sigma, catalogue no. L-3523), 10 µM ATP (0.5 uCi P^33γ-ATP), 7.5 ng Aurora 2, inhibitor in a final volume of 30 µl buffer (HEPES 50 mM pH 7.0, MgCl2 10 mM, 1 mM DTT, 0.2 mg/mL BSA, 3 µM orthovanadate) were added to each well of a 96 U bottom well plate. After 60 minutes at room temperature incubation, the reaction was stopped and biotinylated peptide captured by adding 100 µl of bead suspension.
# Stratification: 100 µl of CsCl 5 M were added to each well and stood for 4 hours before radioactivity was counted in the Top-Count instrument.
# IC50 determination: inhibitors were tested at different concentrations ranging from 0.0015 to 10 µM. Experimental data were analyzed by the computer program GraphPad Prizm using the four parameter logistic equation: y = bottom+(top-bottom)/(1+10^((logIC50-x)*slope)) where x is the logarithm of the inhibitor concentration, y is the response; y starts at bottom and goes to top with a sigmoid shape. Ki calculation: Experimental method: Reaction was carried out in buffer (10 mM Tris, pH 7.5, 10 mM MgCl2, 0.2 mg/mL BSA, 7.5 mM DTT) containing 3.7 nM enzyme, histone and ATP (constant ratio of cold/labeled ATP 1/3000). The reaction was stopped with EDTA and the substrate captured on phosphomembrane (Multiscreen 96 well plates from Millipore). After extensive washing, the multiscreen plates were read on a top counter. Control (time zero) for each ATP and histone concentrations was measured.
row,IC50 [nM],Structure (SMILES)
1,< 10,"CC(C)(NC(=O)c1cc2[nH]nc(NC(=O)c3ccccc3)c2o1)c1ccccc1 [Compound 71, 3-(benzoylamino)-N-(1-methyl-1-phenylethyl)-1H-furo[3,2-c]pyrazole-5-carboxamide]"
2,< 10,"CC(C)(NC(=O)c1cc2[nH]nc(NC(=O)c3ccc(CN4CCCCC4)cc3)c2o1)c1ccccc1F [Compound 74, N-[1-(2-fluorophenyl)-1-methylethyl]-3-{[4-(piperidin-1-ylmethyl)benzoyl]amino}-1H-furo[3,2-c]pyrazole-5-carboxamide]"
3,< 10,"Cc1cc(C(=O)Nc2n[nH]c3cc(C(=O)NC(C)(C)c4ccccc4)oc23)c(C)o1 [Compound 50, 3-[(2,5-dimethyl-3-furoyl)amino]-N-(1-methyl-1-phenylethyl)-1H-furo[3,2-c]pyrazole-5-carboxamide]"
4,< 10,"CN1CCN(c2ccc(C(=O)Nc3n[nH]c4cc(C(=O)NC(C)(C)c5ccccc5F)oc34)cc2)CC1 [Compound 67, N-[1-(2-fluorophenyl)-1-methylethyl]-3-{[4-(4-methylpiperazin-1-yl)benzoyl]amino}-1H-furo[3,2-c]pyrazole-5-carboxamide]"
5,< 10,"CN1CCN(Cc2ccc(C(=O)Nc3n[nH]c4cc(C(=O)NC(C)(C)c5ccccc5)oc34)cc2)CC1 [Compound 31, N-(1-methyl-1-phenylethyl)-3-({4-[(4-methylpiperazin-1-yl)methyl]benzoyl}amino)-1H-furo[3,2-c]pyrazole-5-carboxamide]"
6,< 10,"CC(C)(NC(=O)c1cc2[nH]nc(NC(=O)c3cccs3)c2o1)c1ccc(F)cc1F [Compound 58, N-[1-(2,4-difluorophenyl)-1-methylethyl]-3-[(2-thienylcarbonyl)amino]-1H-furo[3,2-c]pyrazole-5-carboxamide]"
7,< 10,"CC(C)(NC(=O)c1cc2[nH]nc(NC(=O)c3ccc(CN4CCOCC4)cc3)c2o1)c1ccccc1 [Compound 32, N-(1-methyl-1-phenylethyl)-3-{[4-(morpholin-4-ylmethyl)benzoyl]amino}-1H-furo[3,2-c]pyrazole-5-carboxamide]"
8,< 10,"Cc1ccc(C(=O)Nc2n[nH]c3cc(C(=O)NC(C)(C)c4ccccc4)oc23)s1 [Compound 45, N-(1-methyl-1-phenylethyl)-3-{[(5-methyl-2-thienyl)carbonyl]amino}-1H-furo[3,2-c]pyrazole-5-carboxamide]"
9,< 10,"CC(C)(NC(=O)c1cc2[nH]nc(NC(=O)c3ccc(CN4CCCCC4)cc3)c2o1)c1ccccc1 [Compound 59, N-(1-methyl-1-phenylethyl)-3-{[4-(piperidin-1-ylmethyl)benzoyl]amino}-1H-furo[3,2-c]pyrazole-5-carboxamide]"
10,< 10,"CC(C)(NC(=O)c1cc2[nH]nc(NC(=O)c3ccc(CN4CCCC4)cc3)c2o1)c1ccccc1F [Compound 73, N-[1-(2-fluorophenyl)-1-methylethyl]-3-{[4-(pyrrolidin-1-ylmethyl)benzoyl]amino}-1H-furo[3,2-c]pyrazole-5-carboxamide]"
11,< 10,"Cc1ccsc1C(=O)Nc1n[nH]c2cc(C(=O)NC(C)(C)c3ccccc3)oc12 [Compound 44, N-(1-methyl-1-phenylethyl)-3-{[(3-methyl-2-thienyl)carbonyl]amino}-1H-furo[3,2-c]pyrazole-5-carboxamide]"
12,< 10,"CC(C)(NC(=O)c1cc2[nH]nc(NC(=O)c3cccs3)c2o1)c1ccccc1F [Compound 57, N-[1-(2-fluorophenyl)-1-methylethyl]-3-[(2-thienylcarbonyl)amino]-1H-furo[3,2-c]pyrazole-5-carboxamide]"
13,< 10,"CC(C)(NC(=O)c1cc2[nH]nc(NC(=O)c3ccc(N4CCOCC4)cc3)c2o1)c1ccccc1 [Compound 75, N-(1-methyl-1-phenylethyl)-3-[(4-morpholin-4-ylbenzoyl)amino]-1H-furo[3,2-c]pyrazole-5-carboxamide]"
14,< 10,"CC(C)(NC(=O)c1cc2[nH]nc(NC(=O)c3ccccc3)c2o1)c1ccccc1F [Compound 72, 3-(benzoylamino)-N-[1-(2-fluorophenyl)-1-methylethyl]-1H-furo[3,2-c]pyrazole-5-carboxamide]"
15,< 10,"COc1ccc(C(=O)Nc2n[nH]c3cc(C(=O)NC(C)(C)c4ccccc4)oc23)cc1 [Compound 18, 3-[(4-methoxybenzoyl)amino]-N-(1-methyl-1-phenylethyl)-1H-furo[3,2-c]pyrazole-5-carboxamide]"
16,< 10,"O=C(Nc1n[nH]c2cc(C(=O)NC3(c4ccccc4)CC3)oc12)c1ccc(N2CCOCC2)cc1 [Compound 7, 3-[(4-morpholin-4-ylbenzoyl)amino]-N-(1-phenylcyclopropyl)-1H-furo[3,2-c]pyrazole-5-carboxamide]"
17,< 10,"Cc1ccc(C(=O)Nc2n[nH]c3cc(C(=O)NC(C)(C)c4ccccc4)oc23)o1 [Compound 51, 3-[(5-methyl-2-furoyl)amino]-N-(1-methyl-1-phenylethyl)-1H-furo[3,2-c]pyrazole-5-carboxamide]"
18,< 10,"CC(C)(NC(=O)c1cc2[nH]nc(NC(=O)c3ccc(OCCN4CCCC4)cc3)c2o1)c1ccccc1 [Compound 68, N-(1-methyl-1-phenylethyl)-3-{[4-(2-pyrrolidin-1-ylethoxy)benzoyl]amino}-1H-furo[3,2-c]pyrazole-5-carboxamide]"
19,< 10,"CC(C)(NC(=O)c1cc2[nH]nc(NC(=O)c3ccco3)c2o1)c1ccccc1 [Compound 28, 3-(2-furoylamino)-N-(1-methyl-1-phenylethyl)-1H-furo[3,2-c]pyrazole-5-carboxamide]"
20,< 10,"Cc1ccoc1C(=O)Nc1n[nH]c2cc(C(=O)NC(C)(C)c3ccccc3)oc12 [Compound 53, 3-[(3-methyl-2-furoyl)amino]-N-(1-methyl-1-phenylethyl)-1H-furo[3,2-c]pyrazole-5-carboxamide]"
21,< 10,"Cc1csc(C(=O)Nc2n[nH]c3cc(C(=O)NC(C)(C)c4ccccc4)oc23)c1 [Compound 48, N-(1-methyl-1-phenylethyl)-3-{[(4-methyl-2-thienyl)carbonyl]amino}-1H-furo[3,2-c]pyrazole-5-carboxamide]"
22,< 10,"CC(C)(NC(=O)c1cc2[nH]nc(NC(=O)c3ccc(CN4CCC4)cc3)c2o1)c1ccccc1 [Compound 43, 3-{[4-(azetidin-1-ylmethyl)benzoyl]amino}-N-(1-methyl-1-phenylethyl)-1H-furo[3,2-c]pyrazole-5-carboxamide]"
23,< 10,"CC(C)(NC(=O)c1cc2[nH]nc(NC(=O)c3ccoc3)c2o1)c1ccccc1 [Compound 62, 3-(3-furoylamino)-N-(1-methyl-1-phenylethyl)-1H-furo[3,2-c]pyrazole-5-carboxamide]"
24,< 10,"CC(C)(NC(=O)c1cc2[nH]nc(NC(=O)c3ccc(F)cc3)c2o1)c1ccccc1 [Compound 4, 3-[(4-fluorobenzoyl)amino]-N-(1-methyl-1-phenylethyl)-1H-furo[3,2-c]pyrazole-5-carboxamide]"
25,< 10,"CN1CCN(c2ccc(C(=O)Nc3n[nH]c4cc(C(=O)NC(C)(C)c5cccc(Cl)c5)oc34)cc2)CC1 [Compound 26, N-[1-(3-chlorophenyl)-1-methylethyl]-3-{[4-(4-methylpiperazin-1-yl)benzoyl]amino}-1H-furo[3,2-c]pyrazole-5-carboxamide]"
